Reference: ChEMBL document CHEMBL1201862, “PubChem BioAssay data set” (2004)
Calls of active or inactive are those of the source.

How the values were obtained:
[1] = molecular target: T1, Heat shock factor protein 1 (Mus musculus, UniProt P38532); experiment: decrease of HSF1-responsive luciferase luminescence – cell-based, NIH3T3, dose retest, confirmation (AID 2382); format: functional;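 further: NIH3T3 fibroblasts with HSF1-driven luciferase reporter stressed by proteasome inhibitor MG132; luminescence from HSF1-driven luciferase expression after 8 hours of MG132 stress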
T1 sequence (P38532 whole entry): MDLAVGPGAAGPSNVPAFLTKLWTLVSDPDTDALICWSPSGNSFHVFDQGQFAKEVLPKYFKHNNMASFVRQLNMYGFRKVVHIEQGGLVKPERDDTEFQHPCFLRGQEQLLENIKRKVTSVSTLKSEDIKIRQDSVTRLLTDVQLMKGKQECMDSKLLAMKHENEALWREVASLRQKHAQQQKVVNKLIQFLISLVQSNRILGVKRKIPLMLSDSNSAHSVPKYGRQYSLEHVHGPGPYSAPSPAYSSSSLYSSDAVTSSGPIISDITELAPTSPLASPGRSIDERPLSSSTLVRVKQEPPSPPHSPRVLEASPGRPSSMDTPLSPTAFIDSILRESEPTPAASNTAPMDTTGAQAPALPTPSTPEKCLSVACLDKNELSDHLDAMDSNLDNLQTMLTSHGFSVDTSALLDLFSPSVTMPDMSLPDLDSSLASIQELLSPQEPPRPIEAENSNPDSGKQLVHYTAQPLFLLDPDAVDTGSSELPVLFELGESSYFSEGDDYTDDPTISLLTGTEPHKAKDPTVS

[2] = molecular target: T2, Zinc finger protein mex-5 (Caenorhabditis elegans, UniProt Q9XUB2); experiment: potency of MEX-5 RNA-binding blockers – biochemical, C. elegans, fluorescence polarization, dose response (AID 1960)
T2 sequence (Q9XUB2 whole entry): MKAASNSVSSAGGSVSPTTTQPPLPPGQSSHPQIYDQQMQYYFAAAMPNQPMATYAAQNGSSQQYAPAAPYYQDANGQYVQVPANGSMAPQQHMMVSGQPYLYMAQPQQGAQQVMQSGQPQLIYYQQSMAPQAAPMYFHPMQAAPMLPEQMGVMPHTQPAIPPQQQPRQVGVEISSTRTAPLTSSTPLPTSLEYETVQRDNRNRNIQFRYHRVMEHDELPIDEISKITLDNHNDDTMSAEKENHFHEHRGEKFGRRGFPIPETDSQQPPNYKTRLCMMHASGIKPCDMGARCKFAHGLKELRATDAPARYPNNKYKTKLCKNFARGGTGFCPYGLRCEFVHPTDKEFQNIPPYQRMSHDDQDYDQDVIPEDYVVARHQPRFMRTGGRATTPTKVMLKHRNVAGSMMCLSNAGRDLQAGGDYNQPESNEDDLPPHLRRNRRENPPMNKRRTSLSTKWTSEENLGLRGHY

[3] = molecular target: T3, RNA-binding protein pos-1 (Caenorhabditis elegans, UniProt G5EF15); experiment: disruptors of C. elegans POS-1 RNA interaction – biochemical, fluorescence polarization, dose response (AID 1964);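 further: purified POS-1 fused to maltose binding protein made in E. coli; potency of compounds blocking POS-1 binding to fluorescent RNA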
T3 sequence (G5EF15 whole entry): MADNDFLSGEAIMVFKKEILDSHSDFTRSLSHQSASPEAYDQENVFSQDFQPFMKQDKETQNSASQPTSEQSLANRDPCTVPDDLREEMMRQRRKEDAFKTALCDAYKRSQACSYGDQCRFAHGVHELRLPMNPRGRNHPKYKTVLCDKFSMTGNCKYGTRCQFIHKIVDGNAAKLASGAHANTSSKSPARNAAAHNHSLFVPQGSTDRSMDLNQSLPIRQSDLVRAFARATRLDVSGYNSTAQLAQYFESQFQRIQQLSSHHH

Cytochrome P450 3A4 = Cytochrome P450 3A4 (Homo sapiens, UniProt P08684);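 further: CYP3A4 tested as one member of a cytochrome P450 panel screen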
Sequence of Cytochrome P450 3A4 (P08684 whole entry): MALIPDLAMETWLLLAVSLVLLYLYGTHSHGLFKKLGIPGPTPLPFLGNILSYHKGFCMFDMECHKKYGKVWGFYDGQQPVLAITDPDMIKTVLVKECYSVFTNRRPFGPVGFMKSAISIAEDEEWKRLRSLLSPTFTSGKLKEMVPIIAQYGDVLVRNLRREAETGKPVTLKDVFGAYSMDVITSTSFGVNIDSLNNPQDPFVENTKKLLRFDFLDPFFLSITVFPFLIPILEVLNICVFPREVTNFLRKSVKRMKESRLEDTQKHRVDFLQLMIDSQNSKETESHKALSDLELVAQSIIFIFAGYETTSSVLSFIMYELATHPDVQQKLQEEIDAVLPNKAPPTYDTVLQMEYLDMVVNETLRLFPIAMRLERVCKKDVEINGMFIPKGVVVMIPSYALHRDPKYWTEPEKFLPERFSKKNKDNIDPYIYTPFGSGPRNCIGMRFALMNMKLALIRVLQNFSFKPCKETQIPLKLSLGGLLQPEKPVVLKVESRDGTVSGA

Cytochrome P450 2C9 = Cytochrome P450 2C9 (Homo sapiens, UniProt P11712)
Sequence of Cytochrome P450 2C9 (P11712 whole entry): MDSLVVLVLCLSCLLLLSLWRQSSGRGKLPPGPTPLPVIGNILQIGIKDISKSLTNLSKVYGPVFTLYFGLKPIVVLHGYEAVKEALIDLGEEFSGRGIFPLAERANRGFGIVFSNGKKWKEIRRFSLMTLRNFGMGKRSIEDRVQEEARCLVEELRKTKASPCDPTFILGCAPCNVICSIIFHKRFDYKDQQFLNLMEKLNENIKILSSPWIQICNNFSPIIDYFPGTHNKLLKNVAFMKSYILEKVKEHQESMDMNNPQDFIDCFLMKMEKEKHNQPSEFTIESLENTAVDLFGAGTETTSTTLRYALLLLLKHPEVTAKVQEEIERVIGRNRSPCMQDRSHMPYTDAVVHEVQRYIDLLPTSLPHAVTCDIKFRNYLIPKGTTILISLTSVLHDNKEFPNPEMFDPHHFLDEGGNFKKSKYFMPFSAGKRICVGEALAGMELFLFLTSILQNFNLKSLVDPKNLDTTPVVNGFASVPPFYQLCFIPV

Cytochrome P450 1A2 = molecular target: T4, Cytochrome P450 1A2 (Homo sapiens, UniProt P05177);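 further: PubChem cytochrome P450 panel assay, CYP1A2 panel member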
T4 sequence (P05177 whole entry): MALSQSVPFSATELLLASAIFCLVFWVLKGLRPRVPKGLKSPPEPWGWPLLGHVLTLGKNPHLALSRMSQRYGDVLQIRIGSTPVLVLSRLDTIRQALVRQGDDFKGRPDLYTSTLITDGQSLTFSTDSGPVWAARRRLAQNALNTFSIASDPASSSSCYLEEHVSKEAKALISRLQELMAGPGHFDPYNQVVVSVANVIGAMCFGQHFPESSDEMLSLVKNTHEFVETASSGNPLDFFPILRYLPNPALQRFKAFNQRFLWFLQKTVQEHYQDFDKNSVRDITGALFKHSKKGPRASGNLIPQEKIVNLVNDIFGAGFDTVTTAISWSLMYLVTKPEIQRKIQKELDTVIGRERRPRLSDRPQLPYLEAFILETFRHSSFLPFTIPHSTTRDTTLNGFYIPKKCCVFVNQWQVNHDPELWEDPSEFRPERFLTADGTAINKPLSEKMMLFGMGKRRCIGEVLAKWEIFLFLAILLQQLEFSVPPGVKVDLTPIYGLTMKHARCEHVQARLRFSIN

INS1 = experiment: INS-1E survival protection against cytokine death – cell-based, luminescence, retest, dose response (AID 449756); format: functional; conditions: Rattus norvegicus;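 further: cell death triggered by IL-1 beta plus TNF-alpha plus IFN-gamma mixture; protective hits raise ATP signal compared with cytokine alone wells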
[4] = THP-1 cell cytotoxicity, dose response, cytotoxicity control for non-replicating M. tuberculosis project (AID 489025); format: functional
cells = format: functional
Cytochrome P450 2C19 = Cytochrome P450 2C19 (Homo sapiens, UniProt P33261); experiment: Cytochrome panel assay with activity outcomes. Panel member name: p450-cyp2c19 Compounds with AC50 equal or less than 10 uM are considered active; format: functional
Sequence of Cytochrome P450 2C19 (P33261 whole entry): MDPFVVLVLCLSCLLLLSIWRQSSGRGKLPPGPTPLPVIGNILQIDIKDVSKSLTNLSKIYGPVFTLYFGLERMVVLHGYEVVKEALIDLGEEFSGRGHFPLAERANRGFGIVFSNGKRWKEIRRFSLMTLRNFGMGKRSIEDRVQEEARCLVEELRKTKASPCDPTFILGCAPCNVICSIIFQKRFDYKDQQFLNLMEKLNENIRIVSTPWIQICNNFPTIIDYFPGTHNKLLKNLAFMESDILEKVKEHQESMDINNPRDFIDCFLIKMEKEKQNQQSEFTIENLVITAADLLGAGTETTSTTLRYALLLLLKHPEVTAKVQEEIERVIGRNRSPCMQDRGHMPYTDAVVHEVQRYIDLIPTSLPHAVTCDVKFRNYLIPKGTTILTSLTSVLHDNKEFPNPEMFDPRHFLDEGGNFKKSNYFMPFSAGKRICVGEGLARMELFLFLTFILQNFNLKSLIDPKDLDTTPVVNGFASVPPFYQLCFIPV

Cytochrome P450 2D6 = Cytochrome P450 2D6 (Homo sapiens, UniProt P10635);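 further: CYP2D6 member of a cytochrome P450 panel assay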
Sequence of Cytochrome P450 2D6 (P10635 whole entry): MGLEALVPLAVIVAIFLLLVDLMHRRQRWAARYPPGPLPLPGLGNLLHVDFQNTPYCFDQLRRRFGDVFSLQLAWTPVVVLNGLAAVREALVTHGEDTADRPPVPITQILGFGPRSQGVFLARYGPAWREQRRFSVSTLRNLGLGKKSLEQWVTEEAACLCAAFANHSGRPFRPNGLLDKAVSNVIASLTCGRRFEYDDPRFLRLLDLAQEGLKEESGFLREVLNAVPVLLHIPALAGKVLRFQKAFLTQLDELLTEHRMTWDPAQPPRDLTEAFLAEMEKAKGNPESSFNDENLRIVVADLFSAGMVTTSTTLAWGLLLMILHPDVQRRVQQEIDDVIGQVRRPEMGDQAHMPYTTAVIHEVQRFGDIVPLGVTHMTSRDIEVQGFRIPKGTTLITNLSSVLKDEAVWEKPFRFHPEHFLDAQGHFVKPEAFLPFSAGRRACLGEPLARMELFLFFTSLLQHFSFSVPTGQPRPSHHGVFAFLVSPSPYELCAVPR

[5] = molecular target: T5, High affinity choline transporter 1 (Homo sapiens, UniProt Q9GZV3); experiment: human choline transporter blockers, potency – cell-based, 5-point CRC, membrane potential dye, dose response (AID 504840); format: functional
T5 sequence (Q9GZV3 whole entry): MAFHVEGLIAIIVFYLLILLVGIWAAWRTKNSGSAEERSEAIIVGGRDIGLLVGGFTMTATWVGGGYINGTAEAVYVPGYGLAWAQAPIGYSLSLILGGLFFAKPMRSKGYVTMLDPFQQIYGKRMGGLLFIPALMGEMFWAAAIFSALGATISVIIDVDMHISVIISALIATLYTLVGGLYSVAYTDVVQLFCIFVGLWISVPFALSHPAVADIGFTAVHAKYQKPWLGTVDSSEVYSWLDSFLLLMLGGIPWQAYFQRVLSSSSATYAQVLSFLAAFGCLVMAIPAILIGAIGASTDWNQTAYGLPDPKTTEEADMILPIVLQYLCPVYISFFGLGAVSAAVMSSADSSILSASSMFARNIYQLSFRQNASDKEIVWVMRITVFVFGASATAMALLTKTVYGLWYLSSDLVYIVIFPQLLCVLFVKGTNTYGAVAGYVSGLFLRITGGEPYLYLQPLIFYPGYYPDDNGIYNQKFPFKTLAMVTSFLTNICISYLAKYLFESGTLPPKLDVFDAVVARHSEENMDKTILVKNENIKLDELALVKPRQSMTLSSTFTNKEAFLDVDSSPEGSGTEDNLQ

Nonstructural protein 1 = Nonstructural protein 1 (Influenza A virus, UniProt Q194T2); format: functional, Influenza A virus (A/California/07/2009(H1N1))
Sequence of Nonstructural protein 1 (Q194T2 whole entry): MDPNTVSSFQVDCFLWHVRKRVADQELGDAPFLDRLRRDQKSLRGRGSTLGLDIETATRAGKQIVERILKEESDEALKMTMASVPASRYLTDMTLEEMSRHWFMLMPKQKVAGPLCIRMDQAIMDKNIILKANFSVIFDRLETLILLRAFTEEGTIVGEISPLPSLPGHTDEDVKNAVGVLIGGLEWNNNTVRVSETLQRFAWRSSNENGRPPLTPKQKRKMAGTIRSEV

Mu-type opioid receptor = Mu-type opioid receptor (Homo sapiens, UniProt P35372); experiment: (§1) Counterscreen for agonists of heterodimerization of the mu 1 (OPRM1) and delta 1 (OPRD1) opioid receptors: Luminescence-based cell-based high throughput dose response assay to identify agonists of OPRM1 homodimerization.; format: functional
Sequence of Mu-type opioid receptor (P35372 whole entry): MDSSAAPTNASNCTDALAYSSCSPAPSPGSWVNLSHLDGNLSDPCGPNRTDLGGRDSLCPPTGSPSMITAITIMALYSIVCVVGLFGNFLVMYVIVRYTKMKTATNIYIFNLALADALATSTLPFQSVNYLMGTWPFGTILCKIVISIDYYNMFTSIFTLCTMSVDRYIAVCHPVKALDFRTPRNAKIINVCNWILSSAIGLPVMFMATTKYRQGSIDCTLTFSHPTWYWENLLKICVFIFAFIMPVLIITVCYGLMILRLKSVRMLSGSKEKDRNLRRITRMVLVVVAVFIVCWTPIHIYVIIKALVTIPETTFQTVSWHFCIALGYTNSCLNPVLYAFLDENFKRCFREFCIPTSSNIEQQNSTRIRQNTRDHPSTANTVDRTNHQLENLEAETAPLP

[6] = molecular target: 5-hydroxytryptamine receptor 5A (Homo sapiens, UniProt P47898); experiment: Counterscreen for agonists of OPRM1-OPRD1 heterodimerization: luminescence-based cell-based high throughput dose response assay to identify agonists of 5-hydroxytryptamine (serotonin) 5A receptor (HTR5A). [Related pubchem assays (depositor defined):AID504326, AID504355, AID504692, AID504904, AID504905]; format: functional
Sequence of 5-hydroxytryptamine receptor 5A (P47898 whole entry): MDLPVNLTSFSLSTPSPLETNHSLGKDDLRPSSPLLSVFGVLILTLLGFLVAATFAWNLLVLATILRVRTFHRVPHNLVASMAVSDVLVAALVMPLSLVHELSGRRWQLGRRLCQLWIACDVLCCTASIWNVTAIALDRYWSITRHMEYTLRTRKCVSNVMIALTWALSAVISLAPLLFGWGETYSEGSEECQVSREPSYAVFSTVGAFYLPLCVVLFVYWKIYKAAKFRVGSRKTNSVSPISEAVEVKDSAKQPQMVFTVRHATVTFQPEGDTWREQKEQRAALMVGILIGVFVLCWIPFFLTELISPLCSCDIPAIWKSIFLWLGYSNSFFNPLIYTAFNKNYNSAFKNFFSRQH

[7] = molecular target: Delta-type opioid receptor (Homo sapiens, UniProt P41143); experiment: as §1, with “of OPRD1” for “of OPRM1”, “homodimerization. [Related pubchem assays (depositor defined):AID504326, AID504355, AID504692, AID504904, AID504905]” for “homodimerization.”; format: functional
Sequence of Delta-type opioid receptor (P41143 whole entry): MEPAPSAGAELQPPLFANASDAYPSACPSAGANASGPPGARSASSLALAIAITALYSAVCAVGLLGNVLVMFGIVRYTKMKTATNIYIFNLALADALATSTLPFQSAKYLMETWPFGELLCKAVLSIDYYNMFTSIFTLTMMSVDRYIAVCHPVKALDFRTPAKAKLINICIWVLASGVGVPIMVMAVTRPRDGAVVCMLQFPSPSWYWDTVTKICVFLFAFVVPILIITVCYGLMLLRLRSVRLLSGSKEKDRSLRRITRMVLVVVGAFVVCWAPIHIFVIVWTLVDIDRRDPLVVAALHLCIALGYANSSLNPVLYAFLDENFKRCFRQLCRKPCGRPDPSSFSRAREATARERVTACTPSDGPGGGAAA

## CC1(C)CC(=O)C2=C(C1)OC(N)=C(C#N)C2c1ccccc1 (stereo unspecified)
[1]
  EC50: > 195 µM (not active)
[2]
  EC50: > 300 µM (not active)
[3]
  EC50: > 300 µM (not active)

## COc1c2ccoc2nc2c(OC)c(OC[C@H](O)C(C)(C)O)ccc12
Cytochrome P450 3A4
  AC50: 15.8 µM (inconclusive)
Cytochrome P450 2C9
  AC50: inconclusive
Cytochrome P450 1A2
  AC50: 10 µM (inconclusive)

## Cc1[nH]c2ccccc2c1-c1cc(-c2cc(-c3c(C)[nH]c4ccccc34)on2)no1
Cytochrome P450 2C9
  AC50: inconclusive

## CCOc1cc(-c2sc(Nc3cc(C)ccc3OC)n[n+]2-c2ccccc2)ccc1OC
INS1
  AC50: 12.9 µM (active)
[4]
  CC50: > 40 µM (active)
cells
  IC50: > 50 µM (active)

## Cc1cc(Cl)ccc1OC(C)C(=O)Nc1ccc(S(=O)(=O)Nc2cnc3ccccc3n2)cc1 (stereo unspecified)
Cytochrome P450 2C19; read-out: AC50
  AC50: 14.1 µM (inconclusive)
Cytochrome P450 2D6
  AC50: 28.2 µM (inconclusive)
[5]
  IC50: 13.8 µM (active)

## O=C(NC(=S)NNC(=O)c1ccccc1O)c1cccc([N+](=O)[O-])c1
Nonstructural protein 1
  IC50: 15.3 µM (active)

## CCOC(=O)c1c(C)c(C(=O)N2CCc3ccccc3C2)c(C)n1CC
[5]
  IC50: 13.8 µM (active)

## COc1ccc(CCCc2nc3ccccc3[nH]2)cc1
[2]
  EC50: > 300 µM (not active)
[3]
  EC50: > 300 µM (not active)

## Cc1c2ccccc2nc2c(F)c(NC(C)C)c(F)c(F)c12
[2]
  EC50: > 300 µM (not active)
[3]
  EC50: > 300 µM (not active)

## COc1ccc(Cc2nnc(NN)nc2O)cc1OC
Nonstructural protein 1
  IC50: 15.5 µM (active)

## CN(C)S(=O)(=O)Oc1ccccc1C(=O)Nc1cccc(C(F)(F)F)c1
Cytochrome P450 2C9
  AC50: inconclusive

## CC(=O)N1c2ccc(S(=O)(=O)NCCC(=O)NC3CCCC(C)C3C)cc2CC1C (stereo unspecified)
[5]
  IC50: 13.2 µM (active)

## CCOC(=O)C1(CC2CCCCO2)CCN(Cc2nc(-c3cccs3)oc2C)CC1 (stereo unspecified)
Mu-type opioid receptor
  EC50: > 92.5 µM (inactive)
[6]
  EC50: > 92.5 µM (inactive)
[7]
  EC50: > 92.5 µM (inactive)

## CCc1ccc(NC(=O)Nc2ccc3c(c2)N(C)C(=O)CS3)cc1
Mu-type opioid receptor
  EC50: 36.7 µM (inactive)
[6]
  EC50: > 92.5 µM (inactive)
[7]
  EC50: 35.7 µM (inactive)

## Cc1ccc(CC(=O)NCC(c2ccco2)N(C)C)cc1C (stereo unspecified)
Mu-type opioid receptor
  EC50: > 92.4 µM (inactive)
[6]
  EC50: > 92.4 µM (inactive)
[7]
  EC50: > 92.4 µM (inactive)

## O=C(N[C@H]1C/C=C\C[C@H](CC(=O)N(CCO)Cc2ccccc2)C(=O)N[C@H](Cc2c[nH]c3ccccc23)COC1=O)OCC1c2ccccc2-c2ccccc21
Mu-type opioid receptor
  EC50: > 92.5 µM (inactive)
[6]
  EC50: > 92.5 µM (inactive)
[7]
  EC50: > 92.5 µM (inactive)

## COCCNC(=O)C1CC(c2cccc(OC)c2)=NO1 (stereo unspecified)
Cytochrome P450 2C9
  AC50: inconclusive

## CCCN(C(=O)c1cn(CC)c2nc(C)ccc2c1=O)c1c(N)n(Cc2ccccc2)c(=O)[nH]c1=O
[5]
  IC50: 12.6 µM (active)

## CC(=O)N/N=C/c1cc([N+](=O)[O-])ccc1OCCOc1ccccc1
Cytochrome P450 2C19
  AC50: inconclusive
Cytochrome P450 2C9
  AC50: inconclusive

## CN1CCN(CCC(=O)N/N=C/c2cc([N+](=O)[O-])ccc2O)CC1
Nonstructural protein 1
  IC50: 17.3 µM (active)

## COC(=O)[C@@H]1[C@H]2C[C@H]3c4[nH]c5ccccc5c4CCN3C[C@@H]2CC[C@@H]1O [YOHIMBINE]
[2]
  EC50: 103 µM (active)
[3]
  EC50: > 300 µM (not active)
